Experimental findings from US10670605B2, “Cysteine reactive probes and uses thereof” (The Scripps Research Institute, priority 2015, dated 2020) are described below.

Common to all, as to assay: Competitive isoTOP-ABPP, cell lysates
What all share (type): binding

The target in one test is T1, UCHL3 C95 (P15374) (Homo sapiens, UniProt P15374).
T1 sequence (P15374 1-230): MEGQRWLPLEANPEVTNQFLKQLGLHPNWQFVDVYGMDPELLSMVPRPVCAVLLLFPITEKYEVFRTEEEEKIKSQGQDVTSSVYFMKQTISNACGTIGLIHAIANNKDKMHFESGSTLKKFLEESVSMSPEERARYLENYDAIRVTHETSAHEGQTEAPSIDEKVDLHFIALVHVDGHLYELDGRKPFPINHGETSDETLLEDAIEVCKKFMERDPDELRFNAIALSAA
As to conditions: 500 μm.

The target of the next test is PRMT1 C109 (Q99873) (Homo sapiens, UniProt Q99873). As to conditions: 500 μm.
Chain of PRMT1 C109 (Q99873) (Q99873 whole entry): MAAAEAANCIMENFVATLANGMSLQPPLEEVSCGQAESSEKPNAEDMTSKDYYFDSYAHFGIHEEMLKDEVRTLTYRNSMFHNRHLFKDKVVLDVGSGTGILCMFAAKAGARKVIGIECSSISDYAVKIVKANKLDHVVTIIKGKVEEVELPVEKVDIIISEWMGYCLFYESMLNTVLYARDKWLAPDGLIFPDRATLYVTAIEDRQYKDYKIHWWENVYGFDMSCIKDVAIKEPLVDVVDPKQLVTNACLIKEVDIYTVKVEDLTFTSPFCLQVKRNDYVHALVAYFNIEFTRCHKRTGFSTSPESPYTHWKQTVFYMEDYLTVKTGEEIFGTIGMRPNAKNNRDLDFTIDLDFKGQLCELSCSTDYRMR
For a further test, the target named is DCUN1D1 C115 (Q96GG9) (Homo sapiens, UniProt Q96GG9). As to conditions: 500 μm.
Chain of DCUN1D1 C115 (Q96GG9) (Q96GG9 whole entry): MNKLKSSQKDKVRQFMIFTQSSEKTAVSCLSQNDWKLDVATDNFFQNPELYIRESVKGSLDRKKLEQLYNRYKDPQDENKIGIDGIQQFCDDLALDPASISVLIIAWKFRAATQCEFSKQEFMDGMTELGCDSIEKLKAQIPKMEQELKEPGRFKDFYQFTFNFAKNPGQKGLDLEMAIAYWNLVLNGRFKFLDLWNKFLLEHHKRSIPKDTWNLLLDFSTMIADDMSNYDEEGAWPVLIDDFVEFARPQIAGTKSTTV
In the next test the target is T2, AIP C122 (O00170) (Homo sapiens, UniProt O00170).
T2 sequence (O00170 1-330): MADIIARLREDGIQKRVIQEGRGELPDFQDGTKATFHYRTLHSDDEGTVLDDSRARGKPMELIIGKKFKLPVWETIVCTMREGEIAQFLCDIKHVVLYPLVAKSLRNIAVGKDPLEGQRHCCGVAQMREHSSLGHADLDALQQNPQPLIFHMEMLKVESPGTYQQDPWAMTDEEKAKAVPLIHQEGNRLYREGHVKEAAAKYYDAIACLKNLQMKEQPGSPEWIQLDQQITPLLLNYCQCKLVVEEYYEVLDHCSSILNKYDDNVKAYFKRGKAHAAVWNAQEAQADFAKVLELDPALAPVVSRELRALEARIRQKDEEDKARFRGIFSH
The settings on record: 500 μm.

In the next test the target is XPO1 C34 (O14980) (Homo sapiens, UniProt O14980). The settings on record: 500 μm.
Chain of XPO1 C34 (O14980) (O14980 whole entry): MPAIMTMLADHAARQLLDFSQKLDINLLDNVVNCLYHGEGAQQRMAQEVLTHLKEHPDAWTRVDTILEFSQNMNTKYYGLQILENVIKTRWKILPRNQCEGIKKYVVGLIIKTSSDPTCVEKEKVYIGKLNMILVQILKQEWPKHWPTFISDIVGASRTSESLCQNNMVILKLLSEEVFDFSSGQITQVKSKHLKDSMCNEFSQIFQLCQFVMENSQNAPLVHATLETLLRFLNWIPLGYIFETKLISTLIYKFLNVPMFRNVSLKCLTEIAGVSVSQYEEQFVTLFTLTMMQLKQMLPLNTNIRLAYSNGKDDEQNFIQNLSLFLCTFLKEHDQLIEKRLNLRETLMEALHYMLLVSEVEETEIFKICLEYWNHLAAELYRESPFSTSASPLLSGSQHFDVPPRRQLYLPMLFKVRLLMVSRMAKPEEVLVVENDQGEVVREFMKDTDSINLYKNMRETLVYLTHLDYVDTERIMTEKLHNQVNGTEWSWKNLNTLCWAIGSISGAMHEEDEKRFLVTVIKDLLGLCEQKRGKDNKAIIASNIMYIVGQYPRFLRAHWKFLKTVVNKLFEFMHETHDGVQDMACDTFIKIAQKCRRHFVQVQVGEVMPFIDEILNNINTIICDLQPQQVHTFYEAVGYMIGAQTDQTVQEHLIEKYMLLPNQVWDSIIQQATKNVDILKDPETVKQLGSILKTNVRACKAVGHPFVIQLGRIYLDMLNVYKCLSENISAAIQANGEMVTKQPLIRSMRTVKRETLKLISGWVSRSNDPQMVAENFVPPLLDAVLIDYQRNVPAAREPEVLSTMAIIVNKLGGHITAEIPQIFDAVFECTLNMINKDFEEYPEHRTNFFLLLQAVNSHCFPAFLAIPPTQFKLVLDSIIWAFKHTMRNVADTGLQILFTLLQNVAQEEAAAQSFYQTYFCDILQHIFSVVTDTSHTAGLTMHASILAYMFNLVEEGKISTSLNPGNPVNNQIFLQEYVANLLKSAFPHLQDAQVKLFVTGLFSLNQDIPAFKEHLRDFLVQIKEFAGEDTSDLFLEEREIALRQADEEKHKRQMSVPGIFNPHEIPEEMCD
A further test has as its target T3, PDE12 C108 (Q6L8Q7) (Homo sapiens, UniProt Q6L8Q7).
T3 sequence (Q6L8Q7 43-609): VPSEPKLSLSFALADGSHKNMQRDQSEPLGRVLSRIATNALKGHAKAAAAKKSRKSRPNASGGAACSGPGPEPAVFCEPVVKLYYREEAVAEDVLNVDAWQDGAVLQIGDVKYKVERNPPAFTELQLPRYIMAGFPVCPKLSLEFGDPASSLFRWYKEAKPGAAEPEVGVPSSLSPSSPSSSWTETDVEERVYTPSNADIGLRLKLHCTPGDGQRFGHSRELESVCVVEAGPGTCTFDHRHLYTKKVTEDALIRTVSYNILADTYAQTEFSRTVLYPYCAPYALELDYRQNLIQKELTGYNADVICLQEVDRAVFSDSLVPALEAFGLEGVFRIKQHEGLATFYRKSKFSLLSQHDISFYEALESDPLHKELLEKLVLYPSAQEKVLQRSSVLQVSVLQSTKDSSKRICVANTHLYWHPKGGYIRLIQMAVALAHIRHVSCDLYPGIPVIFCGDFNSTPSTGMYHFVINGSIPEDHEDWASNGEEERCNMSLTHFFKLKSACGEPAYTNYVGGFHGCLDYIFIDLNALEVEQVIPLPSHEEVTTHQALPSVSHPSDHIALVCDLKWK
As to conditions: 500 μm.

Another test deals with T4, ADA C75 (P00813) (Homo sapiens, UniProt P00813).
T4 sequence (P00813 1-363): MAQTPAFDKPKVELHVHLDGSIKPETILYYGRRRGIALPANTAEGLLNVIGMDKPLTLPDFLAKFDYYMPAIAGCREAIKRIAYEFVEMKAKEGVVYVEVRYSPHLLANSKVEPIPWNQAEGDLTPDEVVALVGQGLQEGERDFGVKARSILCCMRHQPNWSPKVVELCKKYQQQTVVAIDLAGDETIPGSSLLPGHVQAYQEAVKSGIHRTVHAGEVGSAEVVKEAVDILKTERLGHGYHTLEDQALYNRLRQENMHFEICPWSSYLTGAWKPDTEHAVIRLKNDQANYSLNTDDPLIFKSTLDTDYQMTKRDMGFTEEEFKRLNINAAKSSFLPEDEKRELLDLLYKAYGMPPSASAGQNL
As to conditions: 500 μm, in-vitro_ramos.
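Throughout, for isoTOP-ABPP reactivity profile ratio, O00170 C122: Heavy/light ratio DMSO over fragment-treated so higher means more cysteine engagement.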
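Throughout, for isoTOP-ABPP reactivity profile ratio, Q99873 C109: Heavy/light ratio DMSO over fragment-treated so higher means more cysteine engagement.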

On to `C=CC(=O)N(Cc1cccnc1)c1cc(C(F)(F)F)cc(C(F)(F)F)c1` [compound 31], for which the “isoTOP-ABPP reactivity ratio, P15374_C95” value on UCHL3 C95 (P15374) (in-vitro_ramos) is listed as 0.7; on UCHL3 C95 (P15374) (in-vitro_ramos_231), 0.9. The “isoTOP-ABPP reactivity ratio, Q99873_C109” value is reported as 1.3 on PRMT1 C109 (Q99873) (in-vitro_ramos) and 1.0 on PRMT1 C109 (Q99873) (in-vitro_ramos_231). Further, on DCUN1D1 C115 (Q96GG9) (in-vitro_ramos), the “isoTOP-ABPP reactivity ratio, Q96GG9_C115” value was 0.9. Also, the “isoTOP-ABPP reactivity ratio, O00170_C122” value at AIP C122 (O00170) (in-vitro_ramos) was 0.6. Also, the “isoTOP-ABPP reactivity ratio, O14980_C34” value on XPO1 C34 (O14980) (in-vitro_ramos) came out at 0.8; at XPO1 C34 (O14980) (in-vitro_ramos_231) it was 1.0. Also, the “isoTOP-ABPP reactivity ratio, Q6L8Q7_C108” value on PDE12 C108 (Q6L8Q7) (in-vitro_ramos_231) turned out to be 2.0. Besides, the “isoTOP-ABPP reactivity ratio, P00813_C75” value on ADA C75 (P00813) was 0.8.
As for `CC(C)(C)c1cc(NC(=O)CCl)on1` [compound 32], the results for the “isoTOP-ABPP reactivity ratio, P15374_C95” value at UCHL3 C95 (P15374) (in-vitro_ramos) and at UCHL3 C95 (P15374) (in-vitro_ramos_231) were 1.0 and 1.2, respectively. In addition, the “isoTOP-ABPP reactivity ratio, Q99873_C109” value at PRMT1 C109 (Q99873) (in-vitro_ramos) came out at 1.8; on PRMT1 C109 (Q99873) (in-vitro_ramos_231), 1.7. Besides, on DCUN1D1 C115 (Q96GG9) (in-vitro_ramos), the “isoTOP-ABPP reactivity ratio, Q96GG9_C115” value is on record as 0.9. Also, the “isoTOP-ABPP reactivity ratio, O00170_C122” value on AIP C122 (O00170) (in-vitro_ramos) came out at 1.9; at AIP C122 (O00170) (in-vitro_ramos_231), 3.7. Moreover, the “isoTOP-ABPP reactivity ratio, O14980_C34” value on XPO1 C34 (O14980) (in-vitro_ramos) came to 1.0; on XPO1 C34 (O14980) (in-vitro_ramos_231), 1.2. The figures for the “isoTOP-ABPP reactivity ratio, Q6L8Q7_C108” value at PDE12 C108 (Q6L8Q7) (in-vitro_ramos) and on PDE12 C108 (Q6L8Q7) (in-vitro_ramos_231) were 1.9 and 2.5, respectively. In addition, the “isoTOP-ABPP reactivity ratio, P00813_C75” value at ADA C75 (P00813) was found to be 1.7.
Consider `C=CC(=O)Nc1cc(F)c(N2CCN(C(=O)OC(C)(C)C)CC2)c(F)c1` [compound 38], for which the “isoTOP-ABPP reactivity ratio, P15374_C95” value on UCHL3 C95 (P15374) (in-vitro_ramos) is reported as 12.5; on UCHL3 C95 (P15374) (in-vitro_ramos_231), 2.7. For the same compound, the “isoTOP-ABPP reactivity ratio, Q99873_C109” value on PRMT1 C109 (Q99873) (in-vitro_ramos) is recorded as 1.4; at PRMT1 C109 (Q99873) (in-vitro_ramos_231), 0.9. In addition, the “isoTOP-ABPP reactivity ratio, Q96GG9_C115” value came to 1.0 on DCUN1D1 C115 (Q96GG9) (in-vitro_ramos) and 1.2 on DCUN1D1 C115 (Q96GG9) (in-vitro_ramos_231). The “isoTOP-ABPP reactivity ratio, O00170_C122” value at AIP C122 (O00170) (in-vitro_ramos) and on AIP C122 (O00170) (in-vitro_ramos_231) was 1.5 throughout. Further, the “isoTOP-ABPP reactivity ratio, O14980_C34” value at XPO1 C34 (O14980) (in-vitro_ramos) and on XPO1 C34 (O14980) (in-vitro_ramos_231) was 1.0 throughout. Besides, the “isoTOP-ABPP reactivity ratio, Q6L8Q7_C108” value is given as 6.8 on PDE12 C108 (Q6L8Q7) (in-vitro_ramos) and 0.9 on PDE12 C108 (Q6L8Q7) (in-vitro_ramos_231). In addition, at ADA C75 (P00813), the “isoTOP-ABPP reactivity ratio, P00813_C75” value worked out at 2.3.
With `O=C(CCl)Nc1ccc(-c2ccccc2)cc1` [compound 52], the “isoTOP-ABPP reactivity profile ratio, P15374_C95” value on UCHL3 C95 (P15374) (in-vitro_ramos_231) was 1.2. In addition, the “isoTOP-ABPP reactivity profile ratio, Q99873_C109” value on PRMT1 C109 (Q99873) (in-vitro_ramos) is recorded as 1.3; at PRMT1 C109 (Q99873) (in-vitro_ramos_231) it was 0.9. For the same compound, the “isoTOP-ABPP reactivity profile ratio, Q96GG9_C115” value at DCUN1D1 C115 (Q96GG9) (in-vitro_ramos) was determined as 1.0. For the same compound, on AIP C122 (O00170) (in-vitro_ramos), the “isoTOP-ABPP reactivity profile ratio, O00170_C122” value worked out at 1.4. The “isoTOP-ABPP reactivity profile ratio, O14980_C34” value at XPO1 C34 (O14980) (in-vitro_ramos) is recorded as 1.1; at XPO1 C34 (O14980) (in-vitro_ramos_231) it was 1.0. Further, the “isoTOP-ABPP reactivity profile ratio, Q6L8Q7_C108” value on PDE12 C108 (Q6L8Q7) (in-vitro_ramos) was 6.8; on PDE12 C108 (Q6L8Q7) (in-vitro_ramos_231) it was 1.4. For the same compound, the “isoTOP-ABPP reactivity profile ratio, P00813_C75” value at ADA C75 (P00813) stood at 1.2.
